SMILES strings stand for the structures.

The test system of assay [1] is S. cerevisiae. The following applies: cited from earlier work.
In assay [2] the test system is S. cerevisiae. The assay is described as follows: Fermentation of glucose solution with model inhibitors (cinnamaldehyde, vanillin), with or without cysteine or glycine detoxification. The assay is classed as cell-based, Saccharomyces cerevisiae. The following applies: for detoxification of cinnamaldehyde in glucose solution (fermentation): 2.5 mM cinnamaldehyde. As to the method: (§1) Batch fermentation was carried out in 125 mL serum bottles containing 50 mL broths (untreated or detoxified hydrolysates, untreated or detoxified cinnamaldehyde sugar solution) without any additional nutrient supplement. All the fermentation broths were adjusted to pH 6 with NaOH or H2SO4 and sterilized by passing 0.2 μm sterile filters. After inoculation, the serum bottle was sealed with rubber stopper and aluminum seal, and equipped with cannulas for CO2 release. All fermentation experiments were incubated at 30° C., spun at 150 rpm in a shaker (E24, New Brunswick Scientific). Aliquots of samples were withdrawn at 0, 1, 3, 6, 9, 12, 24, 36 and 48 hours for the time course analysis of both starting material and products. Fermentation was carried out in duplicate. The volumetric ethanol productivity and initial consumption rate of glucose (RG) and mannose (RM) was calculated based on the sugar consumed in the first 6 h of fermentation as described previously (Cao, D. X., Tu, M. B., Xie, R., Li, J., Wu, Y. N., Adhikari, S. 2014. Inhibitory Activity of Carbonyl Compounds on Alcoholic Fermentation by Saccharomyces cerevisiae. Journal of Agricultural and Food Chemistry, 62(4), 918-926).
Preparation of the lignocellulosic biomass and the treatment thereof was performed as described in Example 1. After detoxification, the detoxified hydrolysates were cooled to room temperature and then readjusted to pH 6.0 if needed. Similarly, for the model compound (cinnamaldehyde) detoxification, glucose (˜20 g/L) was mixed with 2.5 mM cinnamaldehyde, and then treated with 5 mM cysteine or glycine at 60° C. for 2 hours prior to fermentation.
To ascertain the potential reaction mechanism in amino acids detoxification of biomass hydrolysates, cinnamaldehyde was detoxified in glucose solution with cysteine and glycine.

Assay [3] relates to S. cerevisiae. The experiment in a line: Batch fermentation of amino acid detoxified loblolly pine hydrolysates by Baker yeast. It is filed as cell-based, Saccharomyces cerevisiae. The following applies: for CEtOH, ethanol final concentration at 48 h / QEtOH, volumetric ethanol productivity in the first 6 h / RG, glucose consumption rate in the first 6 h / RM, mannose consumption rate in the first 6 h / YEtOH, ethanol yield from total glucose and mannose at 48 h / CHMF, percentage of HMF consumed at 48 h: hydrolysates detoxified with amino acid 0.2% w/v.
Description: Loblolly pine (Pinus taeda) wood chips (1.0×1.0 cm, L×W) were collected by Forest Products Laboratory at Auburn University, located in Auburn, Ala. Dilute acid pretreatment was used to produce biomass hydrolysates in a 4.0 L Parr batch reactor (Parr Instrument Co., Moline, Ill.) as previously described (Lai, C. H., Tu, M. B., Li, M., Yu, S. Y. 2014. Remarkable solvent and extractable lignin effects on enzymatic digestibility of organosolv pretreated hardwood. Bioresource Technology, 156, 92-98). Briefly, wood chips (400 grams, dry weight) were soaked in 1% (w/w) sulfuric acid overnight (7:1 liquor/solid ratio) prior to the pretreatment, and then loaded into a reactor and treated at 170° C. for 60 minutes.
To achieve higher ethanol titer in fermentation, loblolly pine hydrolysates were concentrated to approximately one-third of its original volume using a rotary evaporator (IKA RV10 basic) at 40° C. and 60 rotations per minute (rpm). The hydrolysates were first adjusted to pH 4.0 before evaporation. After the concentration, the sugar contents of the hydrolysates were analyzed by HPLC.
[…] The detoxification experiments were performed in a 250 mL flask and placed in a temperature-controlled water batch.
Baker yeast (Fleischmann's), S. cerevisiae, was used for all the fermentation experiments in this study. The yeast was maintained on YDP medium containing (g/L): 20 glucose, 20 peptone, 10 yeast extract and 20 agar. Isolated colony was grown in YDP liquid medium overnight and harvested as fermentation inoculum. The yeast concentration was measured using an UV-vis spectrophotometer. Inoculum of 2.0 g/L was used for all fermentation experiments.
as §1
Ethanol, acetic acid, levulinic acid, formic acid, furfural and HMF were analyzed using an Aminex HPX-87H column (300×7.8 mm) with a refractive index detector. The elution conditions were column temperature of 45° C. and flow rate of 0.6 ml/min with 5.0 mM H2SO4 as the mobile phase in a 60 min isocratic run.

[4] abbreviates: glucose ~20 g/L, 5 mM amino acid, 60° C., 2 hours.
Where [5] appears, read: detoxification at 50° C., pH 6.0, 2 hours.
[6] abbreviates: detoxification at 80° C., pH 6.0, 2 hours.
Setting [7] is: detoxification at pH 8.0, 60° C., 2 hours.
Setting [8] is: pH 6.0, 60° C., 2 hours, listed as glycine.
Setting [9] is: pH 6.0, 60° C., 2 hours, listed as cysteine.
Setting [10] is: pH 6.0, 60° C., 2 hours detoxification.

Regarding `CC(=O)O` [acetic acid], the “increase of final ethanol yield in S. cerevisiae fermentation” value with S. cerevisiae [1] (9 g/L at pH 5) is reported as 16%.

As for `COc1cc(C=O)ccc1O` [vanillin, reference compound], the “inhibition of glucose fermentation (final ethanol concentration and yield)” value with S. cerevisiae [2] (10 mM inhibitor in glucose solution, preliminary results) was “did not inhibit the final ethanol concentration and yield”.

On to `NCC(=O)O` [Glycine, glycine], for which the “detoxification of cinnamaldehyde in glucose solution (fermentation)” value (“detoxification of cinnamaldehyde” for short) with S. cerevisiae [2] (glucose solution, detoxified at 80° C.) is “became fermentable”. For the same compound, the “detoxification of cinnamaldehyde” value in the assay on S. cerevisiae [2] (setting [4]) is reported as “did not detoxify the cinnamaldehyde”. Besides, in the assay with S. cerevisiae [3] (setting [5]), the ethanol productivity is 0.24 g/L/h and the final ethanol concentration stood at 1.87 g/L. This compound also gave a final ethanol concentration with S. cerevisiae [3] (detoxification at 70 and 80° C., pH 6.0, 2 hours) of 23.00 g/L. Also, the ethanol productivity in the assay on S. cerevisiae [3] (detoxification at 70° C., pH 6.0, 2 hours) worked out at 1.08 g/L/h. Moreover, in the assay on S. cerevisiae [3] (setting [6]), the volumetric ethanol productivity was 1.33 g/L/h. Besides, in the assay on S. cerevisiae [3] (detoxification at pH 2.0 and 4.0, 60° C., 2 hours), the “fermentability of detoxified biomass hydrolysates” value is given as “not fermentable”. For the same compound, the “fermentability of detoxified hydrolysates” value in the assay on S. cerevisiae [3] (detoxification at pH 2.0 and 4.0, 80° C.) is on record as “still not fermentable”. In the assay with S. cerevisiae [3] (setting [7]), this compound came in with an ethanol productivity of 0.87 g/L/h and a final ethanol concentration of 23.77 g/L. Further, in the assay on S. cerevisiae [3] (pH 6.0, 60° C., 2 hours), the “CEtOH, ethanol final concentration at 48 h” value (shortened to “CEtOH … at 48 h”) worked out at 8.58 ± 0.27 g/L; the “QEtOH, volumetric ethanol productivity in the first 6 h” value (shortened to “QEtOH, volumetric ethanol productivity”) is listed as 0.42 ± 0.01 g/L/h; the “RG, glucose consumption rate in the first 6 h” value (from here on “RG, glucose consumption rate”) worked out at 0.39 ± 0.01 g/L/h; the “RM, mannose consumption rate in the first 6 h” value (“RM, mannose consumption rate” for short) is listed as 0.50 ± 0.05 g/L/h. In the assay with S. cerevisiae [3] (pH 6.0, 60° C., 2 hours), the “YEtOH, ethanol yield from total glucose and mannose at 48 h” value (“YEtOH, ethanol yield” for short) amounted to 0.16 ± 0.01 g/g. Moreover, in the assay with S. cerevisiae [3] (setting [8]), the “CEtOH … at 48 h” value is reported as 8.58 g/L; the “QEtOH, volumetric ethanol productivity” value is reported as 0.42 g/L/h; the “YEtOH, ethanol yield” value is 0.16 g/g.

For the compound `O=Cc1ccc(CO)o1` [HMF, hydroxymethylfurfural], the “effect on ethanol production by S. cerevisiae” value in the assay on S. cerevisiae [1] (addition of 25 mM (3.16 g/L)) is “did not affect the ethanol production”.

In the case of `O=CC=Cc1ccccc1` [cinnamaldehyde, reference compound], the “inhibition of glucose fermentation” value with S. cerevisiae [2] (2.5 mM inhibitor in glucose solution, preliminary results) is listed as “inhibited glucose fermentation significantly”.

With `N[C@@H](CS)C(=O)O` [Cysteine, cysteine], in the assay on S. cerevisiae [2] (setting [4]), the “detoxification of cinnamaldehyde” value was “detoxified cinnamaldehyde very effectively”. In addition, the “increase of volumetric ethanol productivity when pH was increased from 2 and 4 to 6” value in the assay on S. cerevisiae [3] (60° C., 2 hours) was 92%. For the same compound, in the assay with S. cerevisiae [3] (detoxification at 20, 40, 60 and 80° C. (approximately the same), pH 6.0), the final ethanol yield was ~0.42 g/g. The final ethanol concentration entry in the assay with S. cerevisiae [3] (detoxification at 20, 40, 60 and 80° C. (the same), pH 6.0) is reported as “about 23.34 g/L”. The compound further showed a volumetric ethanol productivity with S. cerevisiae [3] (detoxification at 20° C., pH 6.0, 2 hours) of 0.83 g/L/h. This compound also gave a volumetric ethanol productivity in the assay on S. cerevisiae [3] (detoxification at 40° C., pH 6.0, 2 hours) of 1.19 g/L/h. This compound also showed a volumetric ethanol productivity in the assay with S. cerevisiae [3] (setting [6]) of 1.90 g/L/h. Further, the final ethanol concentration in the assay with S. cerevisiae [3] (detoxification at pH 2.0, 4.0 and 6.0 (the same), 60° C.) was 23.56 g/L. The same compound came in with a volumetric ethanol productivity in the assay on S. cerevisiae [3] (detoxification at pH 2 and 4, 60° C., 2 hours) of 0.92 g/L/h. In addition, in the assay with S. cerevisiae [3] (pH 6.0, 60° C., 2 hours), the “CEtOH … at 48 h” value worked out at 23.14 ± 0.10 g/L; the “QEtOH, volumetric ethanol productivity” value is on record as 1.77 ± 0.03 g/L/h; the “RG, glucose consumption rate” value was 2.10 ± 0.04 g/L/h; the “RM, mannose consumption rate” value came to 2.16 ± 0.12 g/L/h. For the same compound, the “YEtOH, ethanol yield” value in the assay with S. cerevisiae [3] (pH 6.0, 60° C., 2 hours) is listed as 0.42 ± 0.00 g/g. Besides, in the assay with S. cerevisiae [3] (setting [9]), the “CEtOH … at 48 h” value was 23.14 g/L; the “QEtOH, volumetric ethanol productivity” value stood at 1.77 g/L/h; the “RG, glucose consumption rate” value was found to be 2.10 g/L/h; the “RM, mannose consumption rate” value worked out at 2.16 g/L/h. The “YEtOH, ethanol yield” value in the assay with S. cerevisiae [3] (setting [9]) worked out at 0.42 g/g. Further, in the assay on S. cerevisiae [3] (setting [10]), the “ethanol productivity higher than positive sugar control (1.39 g/L/h)” value amounted to 27% and the “improvement of mannose consumption rate compared to the positive sugar control” value is recorded as 43%. Further, the “increase of volumetric ethanol productivity when temperature was changed from 20 to 40, 60, and 80° C.” value in the assay with S. cerevisiae [3] (pH 6.0, 2 hours) is reported as 43-130%.

`N[C@@H](CO)C(=O)O` [Serine, serine]: in the assay with S. cerevisiae [3] (pH 6.0, 60° C., 2 hours), the “CEtOH … at 48 h” value is given as 3.87 ± 0.08 g/L; the “CHMF, percentage of HMF consumed at 48 h” value was determined as 15.66 ± 0.11%; the “QEtOH, volumetric ethanol productivity” value turned out to be 0.45 ± 0.00 g/L/h; the “RG, glucose consumption rate” value is on record as 0.38 ± 0.00 g/L/h. Moreover, in the assay with S. cerevisiae [3] (pH 6.0, 60° C., 2 hours), the “RM, mannose consumption rate” value was determined as 0.65 ± 0.13 g/L/h; the “YEtOH, ethanol yield” value is reported as 0.07 ± 0.00 g/g.

On to `NC(=O)CC[C@H](N)C(=O)O` [Glutamine, glutamine], for which, in the assay on S. cerevisiae [3] (pH 6.0, 60° C., 2 hours), the “CEtOH … at 48 h” value was found to be 3.52 ± 0.06 g/L; the “CHMF, percentage of HMF consumed at 48 h” value is listed as 13.38 ± 0.99%; the “QEtOH, volumetric ethanol productivity” value turned out to be 0.40 ± 0.00 g/L/h; the “RG, glucose consumption rate” value turned out to be 0.38 ± 0.02 g/L/h. Further, in the assay on S. cerevisiae [3] (pH 6.0, 60° C., 2 hours), the “RM, mannose consumption rate” value is recorded as 0.73 ± 0.01 g/L/h; the “YEtOH, ethanol yield” value was 0.06 ± 0.01 g/g.

As for `N[C@@H](Cc1ccccc1)C(=O)O` [Phenylalanine, phenylalanine], in the assay with S. cerevisiae [3] (pH 6.0, 60° C., 2 hours), the “CEtOH … at 48 h” value was 1.87 ± 0.02 g/L; the “CHMF, percentage of HMF consumed at 48 h” value came to 12.69 ± 1.12%; the “QEtOH, volumetric ethanol productivity” value is on record as 0.28 ± 0.00 g/L/h; the “RG, glucose consumption rate” value came to 0.24 ± 0.01 g/L/h. In the assay with S. cerevisiae [3] (pH 6.0, 60° C., 2 hours), the “RM, mannose consumption rate” value is 0.56 ± 0.01 g/L/h; the “YEtOH, ethanol yield” value turned out to be 0.03 ± 0.00 g/g.

These data come from patent US20160215305A1, “Process of Fermenting A Lignocellulosic Biomass” (priority 2015, published 2016).
